Reference: ChEMBL document CHEMBL1137935 (Bioorg Med Chem Lett, 2004)

What was measured:
[1] = target: T1, Adenosine receptor A1 (Cavia porcellus) (UniProt P47745)
T1 sequence (whole entry): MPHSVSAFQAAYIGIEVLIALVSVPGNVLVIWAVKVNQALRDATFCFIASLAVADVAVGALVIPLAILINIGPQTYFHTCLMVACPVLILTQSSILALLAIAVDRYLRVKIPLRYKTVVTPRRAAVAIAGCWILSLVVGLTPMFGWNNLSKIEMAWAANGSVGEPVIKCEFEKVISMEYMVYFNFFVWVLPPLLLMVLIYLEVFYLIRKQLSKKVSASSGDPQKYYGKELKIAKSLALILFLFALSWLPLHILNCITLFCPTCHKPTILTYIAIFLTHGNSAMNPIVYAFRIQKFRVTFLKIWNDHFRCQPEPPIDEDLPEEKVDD

[2] = target: T1, Adenosine receptor A1 (Cavia porcellus); remark: listed apart in the source
[3] = target: T1, Adenosine receptor A1 (Cavia porcellus); test: Binding affinity against […] using [35S]GTP-gamma-S, radioligand in guinea pig.; format: functional
[4] = target: T1, Adenosine receptor A1 (Cavia porcellus); test: Binding affinity against adenosine A1 receptor using [3H]CCPA in guinea pig DDT membrane; format: cell membranes
[5] = target: T1, Adenosine receptor A1 (Cavia porcellus); test: Binding affinity against adenosine A1 receptor using [3H]CPX in guinea pig DDT membrane; 354+/-113
[6] = target: T1, Adenosine receptor A1 (Cavia porcellus); test: Binding affinity against adenosine A1 receptor using [3H]CCPA in guinea pig DDT membrane; 21+/-0
[7] = target: T1, Adenosine receptor A1 (Cavia porcellus); test: Binding affinity against adenosine A1 receptor using [3H]CPX in guinea pig DDT membrane; 158+/-21
[8] = target: T1, Adenosine receptor A1 (Cavia porcellus); test: Binding affinity against adenosine A1 receptor using [3H]CPX in guinea pig DDT membrane; 614+/-78
[9] = target: T1, Adenosine receptor A1 (Cavia porcellus); test: Binding affinity against adenosine A1 receptor using [3H]CCPA in guinea pig DDT membrane; 102+/-45
[10] = target: T1, Adenosine receptor A1 (Cavia porcellus); test: Binding affinity against adenosine A1 receptor using [3H]CPX in guinea pig DDT membrane; 604+/-241
[11] = target: T1, Adenosine receptor A1 (Cavia porcellus); test: Binding affinity against adenosine A1 receptor using [3H]CPX in guinea pig DDT membrane; 473+/-329
[12] = target: T1, Adenosine receptor A1 (Cavia porcellus); test: Binding affinity against adenosine A1 receptor using [3H]CCPA in guinea pig DDT membrane; 2.73+/-0.49
[13] = target: T1, Adenosine receptor A1 (Cavia porcellus); test: Binding affinity against adenosine A1 receptor using [3H]CPX in guinea pig DDT membrane; format: cell membranes
[14] = target: T1, Adenosine receptor A1 (Cavia porcellus); test: Binding affinity against adenosine A1 receptor using [3H]CPX in guinea pig DDT membrane; 503+/-262
[15] = target: T1, Adenosine receptor A1 (Cavia porcellus); test: Binding affinity against adenosine A1 receptor using [3H]CPX in guinea pig DDT membrane; 166+/-75
[16] = target: T1, Adenosine receptor A1 (Cavia porcellus); test: Binding affinity against adenosine A1 receptor using [3H]CCPA in guinea pig DDT membrane; 0.93+/-0.92
[17] = target: T1, Adenosine receptor A1 (Cavia porcellus); test: Binding affinity against adenosine A1 receptor using [3H]CCPA in guinea pig DDT membrane; 7.5+/-1.9
[18] = target: T1, Adenosine receptor A1 (Cavia porcellus); test: Binding affinity against adenosine A1 receptor using [3H]CPX in guinea pig DDT membrane; 1143+/-426
[19] = target: T1, Adenosine receptor A1 (Cavia porcellus); test: Binding affinity against adenosine A1 receptor using [3H]CCPA in guinea pig DDT membrane; 160+/-41
[20] = target: T1, Adenosine receptor A1 (Cavia porcellus); test: Binding affinity against adenosine A1 receptor using [3H]CCPA in guinea pig DDT membrane; 971+/-139
[21] = target: T1, Adenosine receptor A1 (Cavia porcellus); test: Binding affinity against adenosine A1 receptor using [3H]CPX in guinea pig DDT membrane; 5497+/-180
[22] = target: T1, Adenosine receptor A1 (Cavia porcellus); remark: listed apart in the source
[23] = target: T1, Adenosine receptor A1 (Cavia porcellus); remark: listed apart in the source
[24] = target: T1, Adenosine receptor A1 (Cavia porcellus); remark: listed apart in the source
[25] = target: T1, Adenosine receptor A1 (Cavia porcellus); test: Binding affinity against adenosine A1 receptor using [3H]CPX in guinea pig DDT membrane; 1945+/-1316

## OC[C@H]1O[C@@H](n2cnc3c(N[C@@H]4CCOC4)ncnc32)[C@H](O)C1O (single isomer, unassigned)
[1]
  Ki low: 0.543 µM
[2]
  Ki high: 0.00325 µM

## COc1ccc2sc(SC[C@H]3OC(n4cnc5c(NC6CCCC6)ncnc54)[C@H](O)[C@@H]3O)nc2c1 (stereo not given in full)
[3]
  efficacy relative to CPA: 94%
[4]
  Ki high: 0.222 µM
[5]
  Ki low: 0.354 µM

## OC1[C@@H](O)C(n2cnc3c(NC4CCOC4)ncnc32)O[C@@H]1CSc1nccs1 (single isomer, unassigned)
[3]
  efficacy relative to CPA: 106%
[6]
  Ki high: 0.021 µM
[7]
  Ki low: 0.158 µM

## OC1[C@@H](O)C(n2cnc3c(NC4CCOC4)ncnc32)O[C@@H]1CSc1c(Cl)cccc1Cl (single isomer, unassigned)
[3]
  efficacy relative to CPA: 89%
[8]
  Ki low: 0.614 µM
[9]
  Ki high: 0.102 µM

## OC1[C@@H](O)C(n2cnc3c(NC4CCOC4)ncnc32)O[C@@H]1COc1cccc(F)c1 (single isomer, unassigned)
[3]
  efficacy relative to CPA: 70%
[10]
  Ki low: 0.604 µM

## OC1[C@@H](O)C(n2cnc3c(NC4CCOC4)ncnc32)O[C@@H]1COc1ccccc1Cl (single isomer, unassigned)
[11]
  Ki low: 0.473 µM
[3]
  efficacy relative to CPA: 62%

## Cc1cc(COC[C@H]2OC(n3cnc4c(NC5CCOC5)ncnc43)[C@H](O)C2O)no1 (single isomer, unassigned)
[3]
  efficacy relative to CPA: 84%
[12]
  Ki high: 0.00273 µM
[13]
  Ki low: 0.192 µM

## Cc1ccccc1OC[C@H]1OC(n2cnc3c(NC4CCOC4)ncnc32)[C@H](O)C1O (single isomer, unassigned)
[3]
  efficacy relative to CPA: 61%
[14]
  Ki low: 0.503 µM

## O[C@@H]1[C@@H](CSc2nccs2)OC(n2cnc3c(NC4CCCC4)ncnc32)[C@@H]1O (stereo not given in full)
[15]
  Ki low: 0.166 µM
[3]
  efficacy relative to CPA: 105%
[16]
  Ki high: 0.00093 µM

## OC1[C@@H](O)C(n2cnc3c(NC4CCOC4)ncnc32)O[C@@H]1COCc1ccccc1 (single isomer, unassigned)
[3]
  efficacy relative to CPA: 98%
[17]
  Ki high: 0.0075 µM
[13]
  Ki low: 0.165 µM

## Cc1ccccc1SC[C@H]1OC(n2cnc3c(NC4CCOC4)ncnc32)[C@H](O)C1O (single isomer, unassigned)
[3]
  efficacy relative to CPA: 81%
[18]
  Ki low: 1.14 µM
[19]
  Ki high: 0.16 µM

## OC1[C@@H](O)[C@H](n2cnc3c(NC4CCOC4)ncnc32)O[C@@H]1CSc1ccc(F)cc1F (single isomer, unassigned; 26)
[3]
  efficacy relative to CPA: 88%
[13]
  Ki low: 0.494 µM

## OC1[C@@H](O)[C@H](n2cnc3c(NC4CCOC4)ncnc32)O[C@@H]1CSc1ccc(F)cc1F (single isomer, unassigned; 19)
[3]
  efficacy relative to CPA: 86%
[20]
  Ki high: 0.971 µM
[21]
  Ki low: 5.5 µM

## O[C@@H]1[C@@H](CSc2nc3ccccc3s2)OC(n2cnc3c(NC4CCCC4)ncnc32)[C@@H]1O (stereo not given in full)
[3]
  efficacy relative to CPA: 95%
[22]
  Ki low: 1.77 µM

## CNC(=O)OC[C@H]1OC(n2cnc3c(NC4CCOC4)ncnc32)[C@H](O)C1O (single isomer, unassigned)
[23]
  Ki low: 3.61 µM
[24]
  Ki high: 0.167 µM

## OC1[C@@H](O)C(n2cnc3c(NC4CCOC4)ncnc32)O[C@@H]1CSc1nc2ccc(Cl)cc2o1 (single isomer, unassigned)
[3]
  efficacy relative to CPA: 99%
[25]
  Ki low: 1.95 µM
